{
  "source": "patent US20180028617A1",
  "about": "“METHODS OF TREATING MILD BRAIN INJURY AND POST-TRAUMATIC STRESS DISORDER” (The Regents of the University of California, priority 2015, published 2018)",
  "key": {"[1]": {"test_system": "blood brain barrier (BBB) vascular permeability; Aquaporin 4 (AQP-4)", "settings": "cited from earlier work"}, "[2]": {"test_system": "neutrophil oxidative burst in leukocytes isolated from brain tissue", "assay": "Oxidative burst (ROS, DHR 123 fluorescence by flow cytometry) in leukocytes isolated from brain tissue after mild brain injury by controlled cortical impact", "type": "in vivo, C57/B6 mice", "settings": "for Oxidative burst in inflammatory cells following mBI (flow cytometry peak shift, FIG. 2): subcutaneous ghrelin, compared to untreated mBI, n=3 animals in each group", "description": "FIG. 1 depicts principle of assaying oxidative burst within inflammatory cells. Dihydrorhodamine 123 (DHR 123) diffuses across the cell membrane. When it encounters reactive oxygen species (ROS), DHR 123 is oxidized and fluoresces green. The fluorescence is then measured and presented as arbitrary fluorescence unit (AFU), wherein higher intensity means greater oxidative burst and, therefore greater concentration of amount of ROS (See Chen, et al., Measurement of oxidative burst in neutrophils,” Methods Mol Biol., 844: 115-124 (2012); which is incorporated herein by reference in its entirety).\nGhrelin administration reduces oxidative burst in inflammatory cells following mBI. Since no well-accepted animal model exists for concussions, a very small cerebral lesion that closely mimics mBI is used as a model of mBI. C57/B6 mice anesthetized with 5% isoflurane in oxygen (1.7 L/min) are given 0.3 mg/kg buprenorphine subcutaneously for analgesia prior to infliction of the mild brain injury. Anesthesia is assessed by paw pinch reflex. After creating a burr hole through the dura with a dental drill, a lesion using a controlled cortical impactor (CCI) is used to create injury 1 mm lateral and posterior to the bregma (5.0 mm/sec at a depth of 1.0 mm).\nAnimals are separated into three treatment groups: 1) Sham, 2) mBI, and 3) mBI plus ghrelin. A variety of doses can be tested depending upon the particular ghrelin. Ghrelin can be obtained for example from Phoenix Pharmaceuticals, Inc. (Burlingame, Calif.). For example, 1 to 50 μg at one or more time points. As one example, treatment with subcutaneous ghrelin: 1 dose of 10 μg following mBI and additional dose 10 μg 1 hour after. Brain tissue is harvested at 2-8 hours, preferably about 6 hours post-injury. […] The fluorescence is then measured and presented as arbitrary fluorescence unit (AFU), wherein higher intensity means greater oxidative burst and, therefore greater concentration or amount of ROS. […] Oxidative burst, which is a marker for ROS, can be measured by flow cytometry (e.g., FL1 channel with 488-nm laser)."}},
  "data": [
    {"substance": "Gly-Ser-Ser-Phe-Leu-Ser-Pro-Glu-His-Gln-Arg-Val-Gln-Gln-Arg-Lys-Glu-Ser-Lys-Lys-Pro-Pro-Ala-Lys-Leu-Gln-Pro-Arg (GSSFLSPEHQRVQQRKESKKPPAKLQPR; printed: Gly-Ser-Ser-Phe-Leu-Ser-Pro-Glu-His-Gln-Arg-Val-Gln-Gln-Arg-Lys-Glu-Ser-Lys-Lys-Pro-Pro-Ala-Lys-Leu-Gln-Pro-Arg) [ghrelin, 28-amino acid peptide neuroendocrine hormone, endogenous ligand for growth hormone secretagogue receptor; can include octanoyl acylation; obtainable from Phoenix Pharmaceuticals]", "values": [
      {"measurement": "Post-TBI up-regulation of Aquaporin 4 (AQP-4)", "setting": "[1]", "result": "prevents post-TBI up-regulation of Aquaporin 4"},
      {"measurement": "Oxidative burst of ipsilateral whole brain following mild BI (mean fluorescence intensity)", "setting": "[2]; mild BI + ghrelin (2 doses), subcutaneous 10 μg following mBI and 10 μg 1 hour after, vs 7963±2900 mild BI alone and 4624±1858 sham, p-value of 0.048, n=5", "result": 3257, "unit": "AFU"},
      {"measurement": "Oxidative burst in inflammatory cells following mBI (flow cytometry peak shift, FIG. 2)", "setting": "[2]", "result": "lower oxidative burst"},
      {"measurement": "Oxidative burst in inflammatory cells following mBI (flow cytometry peak shift, FIG. 2)", "setting": "[2]; listed as Ghrelin", "result": "reduced the oxidative burst"}
    ]}
  ]
}
